US20240190871A1, “KRASG12D INHIBITOR, PREPARATION METHOD THEREFOR AND APPLICATION THEREOF” (YA THERAPEUTICS INC, priority 2021, published 2024)

Legend:
[1] = system: ATCC CRL-1739 (KRASG^12D mutant) cells; experiment: Tumor cell proliferation inhibition experiment (Cell Titer-Glo, 72 hours); format: cell-based; details: 72 hours incubation, 10% fetal bovine serum, ATP content
Method: The ATCC CRL-1739 (KRASG^12D mutant) cells were digested, centrifuged and resuspended, and the cell density was measured with a Scepter automatic cell counter. The cells were diluted to a solution containing 44,000 cells per milliliter, and the density-adjusted cell solution was 90 per well. Microliters were added to a 96-well culture plate. The 96-well plate was placed in a 37° C., 5% CO2 incubator. After the cells were cultured for 24 hours, different concentrations of the compounds to be tested were added. The cells were incubated with the compounds for 72 hours in the presence of 10% fetal bovine serum. Glo Luminescent Cell Viability Assay Kit (see manufacturer's instructions for details) was used to measure ATP content to assess cell growth inhibition. Briefly, 30 μl of Cell Titer-Glo reagent was added to each well, and the plate was shaken for 10 minutes to induce cell lysis. FluoroskanAscentFL (Thermo) assay records the […], and the maximum signal value is obtained from cells treated with DMSO for 72 hours. The minimum signal value was obtained from the medium alone (the number of cells was zero), and the % inhibition rate=(the maximum signal value compound signal value)/(the maximum signal value−the minimum signal value×100%, and the data were processed using Graphpadprism 5 software. By sigmoid Dose-response curve fitting to calculate IC50 value. “A” means IC50≤50 nM; “B” means 50<IC50≤500 nM; “C” means 500<IC50≤2000 nM; “D” means 2000<IC50

KRAS-G2D/SOS1 = KRAS-G2D/SOS1 (Homo sapiens, UniProt P01116, G12D); experiment: KRAS-G2D/SOS1 binding experiment (HTRF); details: His-tagged G12D protein and Tag1-SOS protein, room temperature
Sequence of KRAS-G2D/SOS1 (P01116 1-188 isoform P01116-2 G12D): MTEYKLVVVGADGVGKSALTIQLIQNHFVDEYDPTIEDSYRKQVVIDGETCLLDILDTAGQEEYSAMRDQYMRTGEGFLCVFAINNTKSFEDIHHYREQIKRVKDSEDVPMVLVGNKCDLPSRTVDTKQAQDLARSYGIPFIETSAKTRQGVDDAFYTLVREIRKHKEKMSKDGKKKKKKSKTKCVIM
Method: • A) Dilute Tagged-His Tag G12D protein and Tag1-SOS protein with diluent at 1:100, and use detection buffer for anti-Tag1-Tb3+ antibody and anti-Tag2-XL665 at 1:100 or 1:25, respectively Dilute. • B) Dilute the compound to be tested with diluent starting from […] concentration, 4 times gradient, a total of 6 concentration gradients, and dilute to 10× stock solution. • C) In a 96-well plate, add 4 uL Tagged-His Tag G12D protein, 4 uL Tag1-SOS protein, 2 ul dilution solution (positive control) or test compound (different concentrations of 10× stock solution) to each well in sequence, a total of 10 ul, and incubate at room temperature for […], add pre-mixed 5 uL anti-Tag1-Tb3+ and 5 uL anti-Tag2-xL665, seal the plate, incubate at room temperature for 2 hours, and read the HTRF signal with a TECAN INFINITEF NANO+ microplate reader.
The ratio of […] and donor excitation signals for each single well was calculated using the formula ratio=665 nm signal value/620 nm signal value×[…]. Data were processed using Graphpadprism5 software. IC50 values were calculated by sigmoidal dose-response curve fitting.

IC50 (KRAS-G2D/SOS1)	Structure (SMILES)	IC50 [1]
> 500 nM	C[C@@H]1CNCCN1c1nc(NCCN(C)C)nc2nc(-c3c(O)cccc3F)c(F)cc12 [Compound 1, 2-(2-((2-(dimethylamino)ethyl)amino)-6-fluoro-4-((R)-2-methylpiperazin-1-yl)pyrido[2,3-d]pyrimidin-7-yl)-3-fluorophenol]	> 2000 nM
> 500 nM	C[C@@H]1CNCCN1c1nc(OC[C@@H]2CCCN2C)nc2nc(-c3c(O)cccc3F)c(F)cc12 [Compound 7, 3-fluoro-2-(6-fluoro-4-((R)-2-methylpiperazin-1-yl)-2-(((S)-1-methylpyrrolidin-2-yl)methoxy)pyrido [2,3-d]pyrimidin-7-yl)phenol]	> 2000 nM
50 to 500 nM	C[C@@H]1CNCCN1c1nc(OC[C@@H]2CCCN2C)nc2nc(-c3cccc4cccc(F)c34)c(F)cc12 [Compound 33, 6-fluoro-7-(8-fluoronaphthalen-1-y1)-4-((R)-2-methylpiperazin-1-y1)-2-(((S)-1-methylpyrrolidin-2-yl)methoxy)pyrido [2,3-d]pyrimidine]	50 to 500 nM
50 to 500 nM	C[C@@H]1CNCCN1c1nc(OC[C@@H]2CCCN2C)nc2nc(-c3cccc4cccc(Cl)c34)c(F)cc12 [Compound 34, 7-(8-chloronaphthalen-1-yl)-6-fluoro-4-((R)-2-methylpiperazin-1-yl)-2-(((S)-1-methylpyrrolidin-2-yl)methoxy)pyrido [2,3-d]pyrimidine]	500 to 2000 nM
≤ 50 nM	C[C@@H]1CNCCN1c1nc(OC[C@@H]2CCCN2C)nc2nc(-c3cc(O)cc4ccccc34)c(F)cc12 [Compound 36, 4-(6-fluoro-4-((R)-2-methylpiperazin-1-yl)-2-(((S)-1-methylpyrrolidin-2-yl)methoxy)pyrido [2,3-d]pyrimidin-7-yl)naphthalen-2-ol]	> 2000 nM
≤ 50 nM	C[C@@H]1CNCCN1c1nc(OC[C@@H]2CCCN2C)nc2nc(-c3cc(O)cc4cccc(Cl)c34)c(F)cc12 [Compound 45, 5-chloro-4-(6-fluoro-4-((R)-2-methylpiperazin-1-yl)-2-(((S)-1-methylpyrrolidin-2-yl)methoxy)pyrido [2,3-d]pyrimidin-7-yl)naphthalen-2-ol]	50 to 500 nM
≤ 50 nM	C[C@@H]1CNCCN1c1nc(OC[C@@H]2CCCN2C)nc2nc(-c3cc(O)cc4cccc(F)c34)c(F)cc12 [Compound 46, 5-fluoro-4-(6-fluoro-4-((R)-2-methylpiperazin-1-yl)-2-(((S)-1-methylpyrrolidin-2-yl)methoxy)pyrido [2,3-d]pyrimidin-7-yl)naphthalen-2-ol]	≤ 50 nM
	CN1CCC[C@H]1COc1nc(N2C3CNCC2C3)c2cc(F)c(-c3cc(O)cc4cccc(F)c34)nc2n1 [Compound 48, 4-(4-(3,6-diazabicyclo[3.1.1]heptan-6-yl)-6-fluoro-2-(((S)-1-methylpyrrolidin-2-yl)methoxy)pyrido [2,3-d]pyrimidin-7-yl)-5-fluoronaphthalen-2-ol]	≤ 50 nM
	CN1C[C@H](F)C[C@H]1COc1nc(N2C3CNCC2C3)c2cc(F)c(-c3cc(O)cc4cccc(F)c34)nc2n1 [Compound 49, 4-(4-(3,6-diazabicyclo[3.1.1]heptan-6-yl)-6-fluoro-2-(((2S,4R)-4-fluoro-1-methylpyrrolidin-2-yl)methoxy)pyrido [2,3-d]pyrimidin-7-y1)-5-fluoronaphthalen-2-ol]	500 to 2000 nM
	Oc1cc(-c2nc3nc(OC[C@@H]4C[C@@H](F)CN4C4CC4)nc(N4C5CNCC4C5)c3cc2F)c2c(F)cccc2c1 [Compound 50, 4-(4-(3,6-diazabicyclo[3.1.1]heptan-6-yl)-2-(((2S,4R)-1-cyclopropyl-4-fluoropyrrolidin-2-yl)methoxy)-6-fluoropyrido[2,3-d]pyrimidin-7-yl)-5-fluoronaphthalen-2-ol]	500 to 2000 nM
	Oc1cc(-c2nc3nc(OCC4(CN5CCCC5)CC4)nc(N4C5CNCC4C5)c3cc2F)c2c(F)cccc2c1 [Compound 51, 4-(4-(3,6-diazabicyclo[3.1.1]heptan-6-yl)-6-fluoro-2-((1-(pyrrolidin-1-ylmethyl)cyclopropyl)methoxy)pyrido[2,3-d]pyrimidin-7-yl)-5-fluoronaphthalen-2-ol]	50 to 500 nM
	Oc1cc(-c2nc3nc(OCC4(CN5CC[C@@H](F)C5)CC4)nc(N4C5CNCC4C5)c3cc2F)c2c(F)cccc2c1 [Compound 52, 4-(4-(3,6-diazabicyclo[3.1.1]heptan-6-yl)-6-fluoro-2-((1-(((R)-3-fluoropyrrolidin-1-yl)methyl)cyclopropyl)methoxy)pyrido[2,3-d]pyrimidin-7-yl)-5-fluoronaphthalen-2-ol]	50 to 500 nM
	Oc1cc(-c2nc3nc(OC[C@@]45CCCN4C[C@H](F)C5)nc(N4C5CNCC4C5)c3cc2F)c2c(Cl)cccc2c1 [Compound 53, 4-(4-(3,6-diazabicyclo[3.1.1]heptan-6-yl)-6-fluoro-2-(((2R,7aS)-2-fluorohexahydro-1H-pyrrolizin-7a-yl)methoxy)pyrido[2,3-d]pyrimidin-7-yl)-5-chloronaphthalen-2-ol]	≤ 50 nM
	Oc1cc(-c2nc3nc(OC[C@@]45CCCN4C[C@H](F)C5)nc(N4C[C@H]5CC[C@@H](C4)N5)c3cc2F)c2c(Cl)cccc2c1 [Compound 55, 4-(4-((1R,5S)-3,8-diazabicyclo [3.2.1]octan-3-yl)-6-fluoro-2-(((2R,7aS)-2-fluorohexahydro-1H-pyrrolizin-7a-yl)methoxy)pyrido[2,3-d]pyrimidin-7-yl)-5-chloronaphthalen-2-ol]	≤ 50 nM
	Oc1cc(-c2nc3nc(OC[C@@]45CCCN4CC(F)C5)nc(N4CC5CCC(C4)N5)c3cc2F)c2c(F)cccc2c1 (stereo partly drawn) [Compound 56, 4-(4-((1R,5S)-3,8-diazabicyclo [3.2.1]octan-3-yl)-6-fluoro-2-(((2R,7aS)-2-fluorohexahydro-1H-pyrrolizin-7a-yl)methoxy)pyrido[2,3-d]pyrimidin-7-y1)-5-fluoronaphthalen-2-ol]	≤ 50 nM
	CCc1c(F)ccc2cc(O)cc(-c3nc4nc(OC[C@@]56CCCN5C[C@H](F)C6)nc(N5C[C@H]6CC[C@@H](C5)N6)c4cc3F)c12 [Compound 59, 4-(4-((1R,5S)-3,8-diazabicyclo[3.2.1]octan-3-yl)-6-fluoro-2-(((2R,7aS)-2-fluorotetrahydro-1H-pyrrolizin-7a(5H)-yl)methoxy)pyrido[2,3-d]pyrimidin-7-yl)-5-ethyl-6-fluoronaphthalen-2-ol]	≤ 50 nM

Structure (SMILES)	IC50 (KRAS-G2D/SOS1)	IC50 [1]
Oc1cc(-c2nc3nc(OC[C@@]45CCCN4C[C@H](F)C5)nc(N4C5CNCC4C5)c3cc2F)c2c(F)cccc2c1 [Compound 54, 4-(4-(3,6-diazabicyclo [3.1.1]heptan-6-y1)-6-fluoro-2-(((2R,7aS)-2-fluorohexahydro-1H-pyrrolizin-7a-yl)methoxy)pyrido[2,3-d]pyrimidin-7-y1)-5-fluoronaphthalen-2-ol]	≤ 50 nM	≤ 50 nM
Oc1cc(-c2nc3nc(OC[C@@]45CCCN4C[C@H](F)C5)cc(N4C[C@H]5CC[C@@H](C4)N5)c3cc2F)c2c(F)cccc2c1 [Compound 57, 4-(5-((1R,5S)-3,8-diazabicyclo[3.2.1]octan-3-yl)-3-fluoro-7-(((2R,7aS)-2-fluorohexahydro-1H-pyrrolizin-7a-yl)methoxy)-1,8-naphthyridin-2-yl)-5-fluoronaphthalen-2-ol]	≤ 50 nM	≤ 50 nM
C#Cc1c(F)ccc2cc(O)cc(-c3nc4nc(OC[C@@]56CCCN5C[C@H](F)C6)nc(N5C[C@H]6CC[C@@H](C5)N6)c4cc3F)c12 [Compound 58, 4-(4-((1R,5S)-3,8-diazabicyclo[3.2.1]octan-3-yl)-6-fluoro-2-(((2R,7aS)-2-fluorotetrahydro-1H-pyrrolizin-7a(5H)-yl)methoxy)pyrido[2,3-d]pyrimidin-7-yl)-5-ethynyl-6-fluoronaphthalen-2-ol]	≤ 50 nM	≤ 50 nM
